Assay results reported in US11555212B2, “Process for the production of sulfated phenolic compounds using modified Escerichia coli” (CysBio ApS, priority 2016, dated 2023).

Key:
E. coli MG1655 = test: Toxicity of unsulfated or sulfated product: growth rates of E. coli; settings: M9 minimal media, 0.2% glucose, pH 7, 37° C.; pHCA 10-40 mM; zosteric acid 20 mM or 40 mM
Method: E. coli MG1655 was grown in chemically defined M9 minimal media with 0.2% glucose as a carbon source without further addition or with the additions of either 10 mM, 20 mM, 25 mM, 30 mM, 35 mM or 40 mM p-coumaric acid (pHCA), or with 20 mM or 40 mM of the sulfate ester of pHCA (zosteric acid). All media preparations had been adjusted to pH 7. Cells were grown at 37° C. with 250 rpm shaking in an orbital shaker. The growth rates were examined by following the optical density at 600 nm.

[1] = molecular target: T1, SULT1A1 Rattus norvegicus (Rattus norvegicus, UniProt P17988); test: Percent conversion of substrates by E. coli expressing a sulfotransferase; type: cell-based; settings: M9, pHCA 100 μM, resveratrol 95 μM or kaempferol 87 μM, overnight 37° C.
T1 construct: 1, 3, 4, 5, and 6 were cloned amplified from liver tissue cDNA; expressed in transfected cells
Method: (§1) The concentration of p-courmaric acid (pHCA) and zosteric acid in the supernatant was quantified by high performance liquid chromatography (HPLC) and compared to chemical standards. HPLC was done on a Thermo setup using a HS-F5 column and mobile phases: 5 mM ammonium formate pH 4.0 (A) and acetonitrile (B) at 1.5 mL min-1, using a gradient elution starting at 5% B. From 0.5 min after injection to 7 min, the fraction of B increased linearly from 5% to 60%, and between 9.5 min and 9.6 the fraction of B decreased back to 5%, and remaining there until 12 min. pHCA and zosteric acid were quantified by measuring absorbance at 277 nm.
(§2) Different sulfotransferases were examined for their substrate specificities against three substrates. We tested the sulfotransferases mentioned in example 1, as well as additional ones. The genes encoding these were cloned as described in example 1 using the primers shown in the table below from cDNA libraries of the respective organisms, except for the SULT1A1 from rat (Rattus norvegicus) codon-optimized for E. coli (described above). The resulting vectors were transformed into BL21(DE3)pLysS.
(§3) The resulting strains were grown in M9 medium containing either 100 μM pHCA, 95 μM resveratrol or 87 μM kaempferol. The cultures were grown overnight at 37° C., 300 rpm. The following day the supernatants were isolated and examined by HPLC as described in example 1.

SULT1A1 Equus caballus = test: as above; type: cell-based; settings: E. coli BL21(DE3)pLysS expressing SULT1A1 Equus caballus; M9; pHCA 100 μM, resveratrol 95 μM or kaempferol 87 μM; overnight 37° C.
Method: as §1, §2, §3

[2] = molecular target: T2, SULT1A1 Canis lupus familiaris (Canis lupus familiaris, UniProt Q29476); test: as above; type: cell-based; settings: E. coli BL21(DE3)pLysS expressing SULT1A1 Canis lupus familiaris; M9; pHCA 100 μM, resveratrol 95 μM or kaempferol 87 μM; overnight 37° C.
T2 construct: 1, 3, 4, 5, and 6 were cloned amplified from liver tissue cDNA; expressed in transfected cells; host or cells: E. coli BL21(DE3)pLysS
Method: as §1, §2, §3

SULT1A1 human = molecular target: T3, SULT1A1 human (Homo sapiens, UniProt P50225, V223M); test: as above; type: cell-based; settings: E. coli BL21(DE3)pLysS expressing SULT1A1 human; M9; pHCA 100 μM, resveratrol 95 μM or kaempferol 87 μM; overnight 37° C.
T3 construct: expressed in transfected cells; host or cells: E. coli BL21(DE3)pLysS
Method: as §1, §2, §3

[3] = tested on: SULT1C1 Gallus gallus domesticus; test: as above; type: cell-based; settings: E. coli BL21(DE3)pLysS expressing SULT1C1 Gallus gallus domesticus; M9; pHCA 100 μM, resveratrol 95 μM or kaempferol 87 μM; overnight 37° C.
Method: as §1, §2, §3

[4] = tested on: SULT1A1 Sus scrofa domesticus; test: as above; type: cell-based; settings: E. coli BL21(DE3)pLysS expressing SULT1A1 Sus scrofa domesticus; M9; pHCA 100 μM, resveratrol 95 μM or kaempferol 87 μM; overnight 37° C.
Method: as §1, §2, §3

[5] = tested on: SULT1E1 Gallus gallus domesticus; test: as above; type: cell-based; settings: E. coli BL21(DE3)pLysS expressing SULT1E1 Gallus gallus domesticus; M9; pHCA 100 μM, resveratrol 95 μM or kaempferol 87 μM; overnight 37° C.
Method: as §1, §2, §3

T1 sequence (P17988 whole entry): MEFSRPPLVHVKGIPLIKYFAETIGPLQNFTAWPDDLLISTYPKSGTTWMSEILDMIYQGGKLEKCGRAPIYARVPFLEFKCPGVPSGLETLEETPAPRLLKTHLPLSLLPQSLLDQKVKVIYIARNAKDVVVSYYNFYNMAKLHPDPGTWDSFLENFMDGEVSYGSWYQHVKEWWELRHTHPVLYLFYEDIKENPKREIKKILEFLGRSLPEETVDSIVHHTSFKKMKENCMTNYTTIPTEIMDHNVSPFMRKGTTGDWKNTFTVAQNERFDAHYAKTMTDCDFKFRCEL
T3 sequence (P50225 whole entry V223M): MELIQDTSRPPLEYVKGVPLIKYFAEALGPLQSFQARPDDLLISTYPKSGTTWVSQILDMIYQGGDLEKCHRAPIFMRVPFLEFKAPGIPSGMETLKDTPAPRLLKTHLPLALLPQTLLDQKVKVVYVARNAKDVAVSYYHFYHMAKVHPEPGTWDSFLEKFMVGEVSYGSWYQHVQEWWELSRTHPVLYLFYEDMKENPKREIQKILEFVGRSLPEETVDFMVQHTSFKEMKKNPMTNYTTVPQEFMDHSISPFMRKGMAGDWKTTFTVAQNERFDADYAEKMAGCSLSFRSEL
T2 sequence (Q29476 whole entry): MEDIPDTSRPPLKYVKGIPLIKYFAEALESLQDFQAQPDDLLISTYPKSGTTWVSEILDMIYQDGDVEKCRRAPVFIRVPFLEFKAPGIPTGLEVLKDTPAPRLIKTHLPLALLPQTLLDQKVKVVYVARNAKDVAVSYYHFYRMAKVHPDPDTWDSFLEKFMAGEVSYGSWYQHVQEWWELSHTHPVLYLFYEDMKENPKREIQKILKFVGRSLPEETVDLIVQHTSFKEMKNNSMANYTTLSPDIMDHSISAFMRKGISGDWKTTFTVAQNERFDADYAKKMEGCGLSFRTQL

O=C(O)/C=C/c1ccc(O)cc1 [pHCA, p-coumaric acid]
Toxicity to the cells (growth rates in exponential growth phase, OD 600 nm, FIG. 4) (E. coli MG1655): toxic to the cells | Percent conversion of the substrate ([1]; E. coli BL21(DE3)pLysS expressing SULT1A1 Rattus norvegicus (Codon-optimized for E. coli)): 73% | Percent conversion of the substrate ([1]; E. coli BL21(DE3)pLysS expressing SULT1A1 Rattus norvegicus): 93% | Percent conversion of the substrate (SULT1A1 Equus caballus): 21% | Percent conversion of the substrate [2]: 34% | Percent conversion of the substrate (SULT1A1 human): 39% | Percent conversion of the substrate [3]: 26% | Percent conversion of the substrate [4]: 8% | Percent conversion of the substrate [5]: 17%
